BindingDB's records for doi:10.1021/acs.jmedchem.6b01566 (Glaxosmithkline, 2017)

Target: Histone acetyltransferase KAT2B (Homo sapiens, UniProt Q92831)
Experiment: Binding affinity to human partial length PCAF bromodomain expressed in mammalian expression system by BROMOscan method

Chain of Histone acetyltransferase KAT2B (Q92831 whole entry): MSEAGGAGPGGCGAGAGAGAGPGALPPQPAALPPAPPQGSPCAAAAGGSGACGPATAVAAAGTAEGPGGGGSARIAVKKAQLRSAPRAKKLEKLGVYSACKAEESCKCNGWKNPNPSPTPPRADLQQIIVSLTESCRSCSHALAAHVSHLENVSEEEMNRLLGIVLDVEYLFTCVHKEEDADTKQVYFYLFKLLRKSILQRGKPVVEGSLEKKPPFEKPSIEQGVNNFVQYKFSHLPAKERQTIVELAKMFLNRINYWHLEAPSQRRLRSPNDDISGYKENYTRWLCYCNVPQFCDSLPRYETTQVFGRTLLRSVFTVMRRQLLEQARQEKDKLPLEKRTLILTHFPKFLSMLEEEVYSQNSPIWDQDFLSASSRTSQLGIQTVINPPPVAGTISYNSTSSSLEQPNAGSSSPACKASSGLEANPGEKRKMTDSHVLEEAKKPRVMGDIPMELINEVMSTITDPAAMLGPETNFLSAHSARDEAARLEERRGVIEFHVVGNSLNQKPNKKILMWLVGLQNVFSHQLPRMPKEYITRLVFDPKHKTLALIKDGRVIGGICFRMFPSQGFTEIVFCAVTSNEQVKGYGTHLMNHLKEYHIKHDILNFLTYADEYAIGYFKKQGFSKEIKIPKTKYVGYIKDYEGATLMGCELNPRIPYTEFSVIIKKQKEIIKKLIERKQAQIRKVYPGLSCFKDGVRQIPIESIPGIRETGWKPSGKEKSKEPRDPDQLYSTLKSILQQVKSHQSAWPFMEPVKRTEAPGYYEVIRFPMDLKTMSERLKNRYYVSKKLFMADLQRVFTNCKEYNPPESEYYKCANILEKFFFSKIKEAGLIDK

Ki: 1.26 nM
SMILES: CN1C[C@H](Nc2cnn(C)c(=O)c2Br)C[C@H](c2ccccc2)C1
